Reference: ChEMBL document CHEMBL1201862, “PubChem BioAssay data set” (2004)
Calls of active or inactive are those of the source.

What was measured:
[1] = target: Cyclin-dependent kinase 5 (Homo sapiens, UniProt Q00535); assay type: functional;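 also: CDK5 measured as one member of a kinase profiling panel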
[2] = target: Cyclin-dependent kinase 8 (Homo sapiens, UniProt P49336); assay: Navigating the Kinome. Panel member name: CDK8; assay type: functional
[3] = target: T1, Apoptotic protease-activating factor 1 (Homo sapiens, UniProt O14727); assay: SAR analysis of small molecule Activators of Apaf-1 in a Fluorescent assay.; assay type: functional; conditions: read-out: EC50_Mean;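 also: caspase-3 cleavage of fluorogenic Rh110 DEVD substrate downstream of apoptosome activation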
T1 sequence (O14727 whole entry): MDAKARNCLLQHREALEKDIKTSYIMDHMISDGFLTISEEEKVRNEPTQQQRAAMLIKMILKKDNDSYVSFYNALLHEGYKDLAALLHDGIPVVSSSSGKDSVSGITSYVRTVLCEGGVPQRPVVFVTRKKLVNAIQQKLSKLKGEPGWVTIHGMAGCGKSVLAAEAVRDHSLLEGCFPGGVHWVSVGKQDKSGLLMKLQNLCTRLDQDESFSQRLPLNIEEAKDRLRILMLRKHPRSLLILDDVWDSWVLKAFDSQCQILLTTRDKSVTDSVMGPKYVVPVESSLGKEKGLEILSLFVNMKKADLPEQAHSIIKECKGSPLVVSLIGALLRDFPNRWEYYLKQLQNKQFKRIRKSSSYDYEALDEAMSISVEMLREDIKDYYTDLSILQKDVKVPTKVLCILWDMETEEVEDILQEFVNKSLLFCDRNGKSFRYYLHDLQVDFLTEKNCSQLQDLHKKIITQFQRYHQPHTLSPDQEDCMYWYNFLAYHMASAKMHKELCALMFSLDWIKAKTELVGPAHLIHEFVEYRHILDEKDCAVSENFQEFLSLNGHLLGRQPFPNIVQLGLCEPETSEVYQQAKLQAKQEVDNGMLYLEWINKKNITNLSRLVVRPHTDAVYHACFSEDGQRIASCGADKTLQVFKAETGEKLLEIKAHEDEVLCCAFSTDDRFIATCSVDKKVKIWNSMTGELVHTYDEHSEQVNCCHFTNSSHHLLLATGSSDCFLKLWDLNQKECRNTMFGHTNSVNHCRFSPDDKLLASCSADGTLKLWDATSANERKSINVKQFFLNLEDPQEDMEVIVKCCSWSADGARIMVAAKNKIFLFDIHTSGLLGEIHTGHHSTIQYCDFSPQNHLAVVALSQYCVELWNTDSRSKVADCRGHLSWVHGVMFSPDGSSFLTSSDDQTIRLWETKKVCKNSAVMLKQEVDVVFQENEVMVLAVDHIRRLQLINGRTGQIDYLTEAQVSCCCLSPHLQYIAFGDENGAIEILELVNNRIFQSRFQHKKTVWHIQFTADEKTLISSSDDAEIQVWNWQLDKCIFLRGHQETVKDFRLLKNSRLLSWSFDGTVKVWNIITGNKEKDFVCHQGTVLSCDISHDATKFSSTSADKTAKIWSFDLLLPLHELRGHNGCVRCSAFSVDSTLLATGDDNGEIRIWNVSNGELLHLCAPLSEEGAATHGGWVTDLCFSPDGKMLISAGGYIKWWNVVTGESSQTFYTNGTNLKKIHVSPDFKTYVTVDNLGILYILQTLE

Cytochrome P450 3A4 = Cytochrome P450 3A4 (Homo sapiens, UniProt P08684); conditions: Potency;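 also: confirmatory qHTS run detecting inhibitors and substrates of CYP3A4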
[4] = target: Aryl hydrocarbon receptor (Homo sapiens, UniProt P35869); conditions: Potency;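 also: confirmatory quantitative high-throughput screen measuring activation of the AhR signaling pathway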
[5] = target: T2, Sentrin-specific protease 6 (Homo sapiens, UniProt Q9GZR1); assay: SAR Analysis of small molecule inhibitors of Sentrin-specific protease 6 (SENP6) using a Luminescent assay. [Related pubchem assays (depositor defined):AID2582, AID2599]; assay type: functional
T2 sequence (Q9GZR1 whole entry): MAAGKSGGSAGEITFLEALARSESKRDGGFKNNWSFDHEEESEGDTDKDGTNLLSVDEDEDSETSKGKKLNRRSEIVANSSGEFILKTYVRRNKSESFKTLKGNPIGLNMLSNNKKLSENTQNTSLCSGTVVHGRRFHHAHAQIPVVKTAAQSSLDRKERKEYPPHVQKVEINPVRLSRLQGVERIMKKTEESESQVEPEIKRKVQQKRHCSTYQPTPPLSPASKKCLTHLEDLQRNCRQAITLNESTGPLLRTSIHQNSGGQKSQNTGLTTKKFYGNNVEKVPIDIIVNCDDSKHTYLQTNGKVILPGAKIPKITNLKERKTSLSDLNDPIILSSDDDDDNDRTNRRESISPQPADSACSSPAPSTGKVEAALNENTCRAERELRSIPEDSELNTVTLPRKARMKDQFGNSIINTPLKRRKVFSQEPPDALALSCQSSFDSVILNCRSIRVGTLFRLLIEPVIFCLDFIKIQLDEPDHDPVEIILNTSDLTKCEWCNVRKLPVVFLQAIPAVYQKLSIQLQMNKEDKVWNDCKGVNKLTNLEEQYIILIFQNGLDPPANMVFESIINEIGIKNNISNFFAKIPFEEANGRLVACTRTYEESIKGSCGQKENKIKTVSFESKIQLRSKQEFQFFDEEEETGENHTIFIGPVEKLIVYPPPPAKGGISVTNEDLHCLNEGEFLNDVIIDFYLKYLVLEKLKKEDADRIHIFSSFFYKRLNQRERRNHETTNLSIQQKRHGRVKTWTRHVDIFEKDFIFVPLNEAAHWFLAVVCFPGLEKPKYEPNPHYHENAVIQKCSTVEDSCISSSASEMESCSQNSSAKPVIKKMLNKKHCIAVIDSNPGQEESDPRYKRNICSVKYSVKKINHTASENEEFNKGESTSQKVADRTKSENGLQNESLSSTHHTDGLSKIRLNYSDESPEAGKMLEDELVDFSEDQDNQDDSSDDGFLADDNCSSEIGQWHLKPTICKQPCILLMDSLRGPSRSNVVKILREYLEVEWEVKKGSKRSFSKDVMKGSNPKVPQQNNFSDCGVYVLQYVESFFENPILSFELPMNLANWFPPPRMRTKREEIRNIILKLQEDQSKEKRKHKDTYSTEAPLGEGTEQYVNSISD

[6] = target: T3, Sentrin-specific protease 7 (Homo sapiens, UniProt Q9BQF6); assay: inhibition of human SENP7 cleavage activity – biochemical, luminescence, SAR follow-up (AID 504497); assay type: functional
T3 sequence (Q9BQF6 whole entry): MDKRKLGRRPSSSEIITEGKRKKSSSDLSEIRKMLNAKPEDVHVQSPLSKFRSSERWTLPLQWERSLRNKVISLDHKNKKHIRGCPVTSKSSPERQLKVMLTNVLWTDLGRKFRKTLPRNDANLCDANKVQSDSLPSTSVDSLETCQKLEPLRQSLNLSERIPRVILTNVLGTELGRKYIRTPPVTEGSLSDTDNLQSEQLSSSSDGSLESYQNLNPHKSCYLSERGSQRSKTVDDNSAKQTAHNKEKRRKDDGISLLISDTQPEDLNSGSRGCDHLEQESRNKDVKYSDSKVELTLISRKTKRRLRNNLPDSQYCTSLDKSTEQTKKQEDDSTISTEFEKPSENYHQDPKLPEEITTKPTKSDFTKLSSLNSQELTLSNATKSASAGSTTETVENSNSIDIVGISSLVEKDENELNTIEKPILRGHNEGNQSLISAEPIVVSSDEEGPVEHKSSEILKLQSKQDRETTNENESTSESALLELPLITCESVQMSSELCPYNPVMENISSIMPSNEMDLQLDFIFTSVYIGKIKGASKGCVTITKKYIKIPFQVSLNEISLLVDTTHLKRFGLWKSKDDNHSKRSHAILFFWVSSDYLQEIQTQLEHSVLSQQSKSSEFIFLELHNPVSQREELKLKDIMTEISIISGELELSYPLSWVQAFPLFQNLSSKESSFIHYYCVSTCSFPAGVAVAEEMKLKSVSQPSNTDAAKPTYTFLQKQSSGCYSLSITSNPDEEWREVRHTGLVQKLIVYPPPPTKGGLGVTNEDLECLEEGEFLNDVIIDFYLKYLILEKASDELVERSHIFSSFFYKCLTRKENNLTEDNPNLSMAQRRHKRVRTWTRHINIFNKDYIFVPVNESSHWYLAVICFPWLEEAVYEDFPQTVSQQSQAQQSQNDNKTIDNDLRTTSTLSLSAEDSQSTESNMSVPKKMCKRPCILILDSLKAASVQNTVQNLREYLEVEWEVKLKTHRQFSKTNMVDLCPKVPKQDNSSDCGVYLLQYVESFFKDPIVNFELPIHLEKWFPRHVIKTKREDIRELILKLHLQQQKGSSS

[7] = target: T4, Sentrin-specific protease 8 (Homo sapiens, UniProt Q96LD8); assay: inhibition of human SENP8 cleavage activity – biochemical, luminescence, SAR follow-up (AID 504501); assay type: functional
T4 sequence (Q96LD8 whole entry): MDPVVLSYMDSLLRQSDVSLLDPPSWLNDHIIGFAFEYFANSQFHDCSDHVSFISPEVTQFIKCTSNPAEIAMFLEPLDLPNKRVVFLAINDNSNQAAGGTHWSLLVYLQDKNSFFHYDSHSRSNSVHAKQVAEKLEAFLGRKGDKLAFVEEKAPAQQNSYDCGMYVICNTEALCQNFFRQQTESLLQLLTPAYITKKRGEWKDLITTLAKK

Caspase-3 = target: T5, Caspase-3 (Homo sapiens, UniProt P42574); assay: SAR Analysis of small molecule inhibitors of Sentrin-specific proteases (SENPs) using a Caspase-3 Selectivity assay. [Related pubchem assays (depositor defined):AID2540, AID2599, AID434973, AID489001]; assay type: functional
T5 sequence (P42574 whole entry): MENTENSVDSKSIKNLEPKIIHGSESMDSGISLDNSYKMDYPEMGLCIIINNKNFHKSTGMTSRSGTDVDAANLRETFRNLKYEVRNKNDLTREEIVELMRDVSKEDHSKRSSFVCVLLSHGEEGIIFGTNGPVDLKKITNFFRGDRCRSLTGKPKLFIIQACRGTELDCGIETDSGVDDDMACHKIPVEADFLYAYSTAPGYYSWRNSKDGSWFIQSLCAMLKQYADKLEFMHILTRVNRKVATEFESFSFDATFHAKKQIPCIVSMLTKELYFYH

[8] = target: Dual specificity protein kinase CLK4 (Homo sapiens, UniProt Q9HAZ1); assay type: functional
[9] = target: Protein disulfide-isomerase (Homo sapiens, UniProt P07237); assay: inhibition of PDI-driven insulin aggregation – biochemical, turbidity, absorbance, cherry-picked samples, dose response (AID 602350); assay type: functional
[10] = inhibition of ARNT PAS-B/TACC3 complex formation – biochemical, AlphaScreen, cherry-picked samples, confirmation (AID 651703); assay type: functional, Homo sapiens;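 also: His-tagged ARNT PAS-B domain paired with GST-TACC3 E629A dimer coactivator fragment; potency of inhibitors that break up the complex and lower AlphaScreen signal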
[11] = target: 72 kDa type IV collagenase (Homo sapiens, UniProt P08253); assay: Dose Response validation of uHTS RPN11 inhibitor hits using a MMP-2 Fluorescence assay.; assay type: functional
Nonstructural protein 1 = Nonstructural protein 1 (Influenza A virus, UniProt Q194T2); assay type: functional, Influenza A virus (A/California/07/2009(H1N1))
Prothrombin = Prothrombin (Bos taurus, UniProt P00735); assay: thrombin protease inhibitors – biochemical, fluorescence polarization, uHTS hits, dose response (AID 602369); assay type: functional
Streptococcus = assay: GAS UMAA2166 growth inhibition – luminescence, BacTiterGlo, counter-screen for streptokinase expression inhibitor project, dose response (AID 1915); assay type: functional, organism-based;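 also: potency for reduction of bacterial viability or growth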
[12] = test system: Streptococcus sp. 'group A'; assay: Streptococcus pyogenes SK(-)GAS viability under kanamycin – luminescence, BacTiterGlo, confirmation, counter-screen for streptokinase expression inhibitor project, dose response (AID 1900); assay type: functional, organism-based
[13] = target: 26S proteasome non-ATPase regulatory subunit 14 (Homo sapiens, UniProt O00487); assay: inhibition of proteasome subunit RPN11 – biochemical, fluorescence polarization, uHTS hits, confirmation (AID 602368); assay type: functional
[14] = target: Melanin-concentrating hormone receptor 1 (Homo sapiens, UniProt Q99705); assay: Late-stage fluorescence-based counterscreen for antagonists of the G-protein coupled receptor 7 (GPR7): cell-based dose response assay to identify antagonists of the melanin-concentrating hormone receptor 1 (MCHR1) Set 5.; assay type: functional
[15] = target: Neuropeptides B/W receptor type 1 (Homo sapiens, UniProt P48145); assay: human NPBW1 receptor blockade, IC50 – cell-based, fluorescence, dose response, set 5, late-stage follow-up (AID 588566); assay type: functional
Neuropeptides B/W receptor type 1, sequence (P48145 whole entry): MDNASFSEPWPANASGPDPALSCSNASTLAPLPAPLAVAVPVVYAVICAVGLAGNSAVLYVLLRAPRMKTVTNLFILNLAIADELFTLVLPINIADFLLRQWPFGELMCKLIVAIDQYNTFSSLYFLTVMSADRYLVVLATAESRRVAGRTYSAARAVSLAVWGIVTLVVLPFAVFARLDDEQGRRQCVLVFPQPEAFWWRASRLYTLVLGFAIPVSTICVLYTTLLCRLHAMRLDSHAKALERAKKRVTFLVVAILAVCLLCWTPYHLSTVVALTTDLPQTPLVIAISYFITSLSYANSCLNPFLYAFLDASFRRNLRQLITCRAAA

Protein disulfide-isomerase, sequence (P07237 whole entry, the tested form may be a part): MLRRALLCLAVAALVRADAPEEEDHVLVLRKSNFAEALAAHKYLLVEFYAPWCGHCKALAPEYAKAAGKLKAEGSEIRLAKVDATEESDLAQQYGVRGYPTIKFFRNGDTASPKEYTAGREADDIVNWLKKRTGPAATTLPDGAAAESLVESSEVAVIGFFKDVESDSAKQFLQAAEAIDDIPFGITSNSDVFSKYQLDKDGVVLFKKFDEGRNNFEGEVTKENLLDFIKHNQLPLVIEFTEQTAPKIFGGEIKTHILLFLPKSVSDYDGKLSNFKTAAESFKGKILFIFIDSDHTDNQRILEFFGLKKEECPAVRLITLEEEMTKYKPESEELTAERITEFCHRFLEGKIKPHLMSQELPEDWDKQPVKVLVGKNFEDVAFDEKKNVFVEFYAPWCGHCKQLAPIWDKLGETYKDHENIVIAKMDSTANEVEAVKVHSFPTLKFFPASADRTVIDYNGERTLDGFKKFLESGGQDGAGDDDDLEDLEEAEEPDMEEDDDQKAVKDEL
Cyclin-dependent kinase 8, sequence (P49336 whole entry): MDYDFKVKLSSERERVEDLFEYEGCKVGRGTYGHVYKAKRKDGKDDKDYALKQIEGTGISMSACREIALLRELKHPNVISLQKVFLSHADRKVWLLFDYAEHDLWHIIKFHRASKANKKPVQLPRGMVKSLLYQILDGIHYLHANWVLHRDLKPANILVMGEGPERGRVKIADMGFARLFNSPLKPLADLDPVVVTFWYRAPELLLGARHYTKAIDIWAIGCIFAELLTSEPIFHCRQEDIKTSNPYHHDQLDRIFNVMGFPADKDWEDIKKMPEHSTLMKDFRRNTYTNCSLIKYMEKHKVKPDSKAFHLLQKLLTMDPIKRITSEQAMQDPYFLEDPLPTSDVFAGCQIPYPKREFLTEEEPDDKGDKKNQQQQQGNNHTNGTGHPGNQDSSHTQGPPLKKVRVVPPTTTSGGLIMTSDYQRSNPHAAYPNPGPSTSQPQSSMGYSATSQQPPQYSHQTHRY
Melanin-concentrating hormone receptor 1, sequence (Q99705 whole entry): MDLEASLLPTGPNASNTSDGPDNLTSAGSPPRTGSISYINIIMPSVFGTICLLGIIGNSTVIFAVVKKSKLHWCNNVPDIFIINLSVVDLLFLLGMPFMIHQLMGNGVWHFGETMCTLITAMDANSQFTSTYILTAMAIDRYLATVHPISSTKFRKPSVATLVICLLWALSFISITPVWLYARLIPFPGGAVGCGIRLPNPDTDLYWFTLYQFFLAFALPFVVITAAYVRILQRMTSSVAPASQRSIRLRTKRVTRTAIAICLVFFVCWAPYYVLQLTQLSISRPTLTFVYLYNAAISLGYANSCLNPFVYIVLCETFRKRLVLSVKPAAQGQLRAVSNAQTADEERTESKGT
Aryl hydrocarbon receptor, sequence (P35869 whole entry): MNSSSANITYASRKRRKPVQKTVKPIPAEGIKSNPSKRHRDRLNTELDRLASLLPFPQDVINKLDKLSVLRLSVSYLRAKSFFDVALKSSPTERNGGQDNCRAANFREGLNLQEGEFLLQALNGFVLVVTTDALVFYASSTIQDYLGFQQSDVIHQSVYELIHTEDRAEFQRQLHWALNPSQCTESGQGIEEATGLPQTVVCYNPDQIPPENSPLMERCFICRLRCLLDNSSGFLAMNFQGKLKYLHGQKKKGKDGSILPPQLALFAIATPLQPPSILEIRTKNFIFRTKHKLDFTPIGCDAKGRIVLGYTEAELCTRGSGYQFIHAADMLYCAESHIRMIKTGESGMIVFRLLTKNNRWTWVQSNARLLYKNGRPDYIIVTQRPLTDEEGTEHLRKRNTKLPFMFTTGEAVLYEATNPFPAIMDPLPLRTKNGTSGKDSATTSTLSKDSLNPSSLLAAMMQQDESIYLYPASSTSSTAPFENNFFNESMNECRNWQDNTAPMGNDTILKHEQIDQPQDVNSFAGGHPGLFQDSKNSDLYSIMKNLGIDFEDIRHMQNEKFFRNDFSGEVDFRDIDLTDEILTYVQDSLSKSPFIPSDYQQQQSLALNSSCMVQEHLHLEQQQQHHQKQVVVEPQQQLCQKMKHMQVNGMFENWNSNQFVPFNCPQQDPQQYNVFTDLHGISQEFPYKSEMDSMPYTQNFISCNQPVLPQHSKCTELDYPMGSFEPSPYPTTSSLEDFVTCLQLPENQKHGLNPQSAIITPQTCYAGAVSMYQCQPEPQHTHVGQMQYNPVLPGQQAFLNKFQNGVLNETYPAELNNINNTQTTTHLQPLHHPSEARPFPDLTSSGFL
Nonstructural protein 1, sequence (Q194T2 whole entry): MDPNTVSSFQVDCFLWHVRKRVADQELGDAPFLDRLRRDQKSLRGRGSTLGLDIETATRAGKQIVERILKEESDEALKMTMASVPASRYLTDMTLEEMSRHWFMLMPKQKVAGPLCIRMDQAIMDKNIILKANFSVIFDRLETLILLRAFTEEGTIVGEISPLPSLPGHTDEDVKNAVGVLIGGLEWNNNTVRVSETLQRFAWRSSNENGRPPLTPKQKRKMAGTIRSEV
Cytochrome P450 3A4, sequence (P08684 whole entry): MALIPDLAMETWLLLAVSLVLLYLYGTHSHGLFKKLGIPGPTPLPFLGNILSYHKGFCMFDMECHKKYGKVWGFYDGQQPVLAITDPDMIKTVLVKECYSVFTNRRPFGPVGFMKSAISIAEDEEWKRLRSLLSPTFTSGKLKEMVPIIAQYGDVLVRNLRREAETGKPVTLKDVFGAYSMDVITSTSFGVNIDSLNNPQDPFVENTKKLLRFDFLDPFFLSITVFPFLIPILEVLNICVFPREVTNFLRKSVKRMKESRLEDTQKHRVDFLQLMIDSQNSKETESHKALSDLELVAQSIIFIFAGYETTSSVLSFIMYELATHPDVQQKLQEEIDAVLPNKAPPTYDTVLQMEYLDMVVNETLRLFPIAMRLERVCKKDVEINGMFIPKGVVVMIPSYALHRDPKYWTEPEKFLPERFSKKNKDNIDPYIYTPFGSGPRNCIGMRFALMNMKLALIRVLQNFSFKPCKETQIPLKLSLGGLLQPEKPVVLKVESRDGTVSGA
Cyclin-dependent kinase 5, sequence (Q00535 whole entry): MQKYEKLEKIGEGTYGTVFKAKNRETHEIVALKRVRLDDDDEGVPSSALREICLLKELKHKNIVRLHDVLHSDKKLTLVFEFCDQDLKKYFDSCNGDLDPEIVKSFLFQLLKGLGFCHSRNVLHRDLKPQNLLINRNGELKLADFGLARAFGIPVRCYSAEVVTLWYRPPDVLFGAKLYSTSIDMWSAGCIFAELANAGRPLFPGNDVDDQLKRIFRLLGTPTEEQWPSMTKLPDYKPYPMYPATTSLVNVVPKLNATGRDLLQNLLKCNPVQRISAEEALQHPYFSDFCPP
26S proteasome non-ATPase regulatory subunit 14, sequence (O00487 whole entry): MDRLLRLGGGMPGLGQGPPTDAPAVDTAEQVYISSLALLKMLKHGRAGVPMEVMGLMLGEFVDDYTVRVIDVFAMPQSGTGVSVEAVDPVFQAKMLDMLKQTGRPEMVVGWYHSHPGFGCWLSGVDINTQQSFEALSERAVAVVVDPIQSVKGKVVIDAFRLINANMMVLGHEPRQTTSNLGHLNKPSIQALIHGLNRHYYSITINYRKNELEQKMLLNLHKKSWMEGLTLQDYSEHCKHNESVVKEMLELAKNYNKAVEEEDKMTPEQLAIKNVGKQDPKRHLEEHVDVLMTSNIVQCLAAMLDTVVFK
72 kDa type IV collagenase, sequence (P08253 whole entry): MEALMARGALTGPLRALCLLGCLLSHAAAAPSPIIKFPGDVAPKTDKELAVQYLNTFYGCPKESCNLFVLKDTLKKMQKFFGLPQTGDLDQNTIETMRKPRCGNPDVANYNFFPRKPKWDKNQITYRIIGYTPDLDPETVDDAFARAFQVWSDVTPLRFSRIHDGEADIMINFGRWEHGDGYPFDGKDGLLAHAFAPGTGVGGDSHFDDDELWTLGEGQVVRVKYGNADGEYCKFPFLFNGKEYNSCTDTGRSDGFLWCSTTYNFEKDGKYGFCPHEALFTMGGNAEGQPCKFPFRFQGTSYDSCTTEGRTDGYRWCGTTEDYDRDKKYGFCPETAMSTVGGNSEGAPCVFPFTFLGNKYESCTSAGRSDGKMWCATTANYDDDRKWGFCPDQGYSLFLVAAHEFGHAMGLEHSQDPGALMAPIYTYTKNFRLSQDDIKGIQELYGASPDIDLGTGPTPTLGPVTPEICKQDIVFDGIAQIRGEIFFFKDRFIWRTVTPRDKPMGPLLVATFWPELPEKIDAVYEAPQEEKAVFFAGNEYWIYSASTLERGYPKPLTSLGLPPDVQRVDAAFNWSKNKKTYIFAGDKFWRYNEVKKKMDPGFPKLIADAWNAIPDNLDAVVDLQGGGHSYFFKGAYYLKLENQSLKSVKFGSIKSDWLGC

C=C1c2ccccc2CC(CCN(C)C)c2ccccc21 (stereo not drawn)
Ki [1]: 3.16 µM (active)
Ki [2]: 1.26 µM (active)

CC(Nc1ccccc1)C(=O)O (stereo not drawn)
EC50 [3]: > 100 µM (inactive)

COc1cccc2sc(N)nc12
AC50 (Cytochrome P450 3A4): 15.8 µM (inconclusive)
AC50 [4]: 50.1 µM (inconclusive)

CC(C)CC(=O)Nc1ccc2nc(NC(=O)c3ccccc3)sc2c1
IC50 [5]: 6.09 µM (active)
IC50 [6]: 3.07 µM (active)
IC50 [7]: 6.63 µM (active)
IC50 (Caspase-3): 7.24 µM (active)

COc1ccc(CCN(C)C(=O)CCc2ccc(Cl)c(Cl)c2)cc1OC
Ki [2]: 2.51 µM (active)
Ki [8]: 2 µM (active)

O=C1NC[C@H](Cc2ccc(O)cc2)N(CC2CCCCC2)C1=O
AC50 [9]: 19.5 µM (active)

Cn1c(-c2ccccc2)cnc1NC(=O)c1cc(-c2ccccc2)on1
AC50 [10]: 117 µM (active)

O=[N+]([O-])c1ccc(O)c(/N=C/c2sc3ccccc3c2O)c1
IC50 [11]: > 100 µM (inactive)
IC50 (Nonstructural protein 1): > 100 µM (active)
IC50 (Prothrombin): 2.57 µM (active)
EC50 (Streptococcus): 9.08 µM (active)
EC50 [12]: 5.2 µM (active)
IC50 [13]: 3.28 µM (active)

C[C@H](CO)N1C[C@H](C)[C@@H](CN(C)Cc2ccc(Oc3ccccc3)cc2)Oc2c(NS(C)(=O)=O)cccc2C1=O
AC50 [9]: 19.5 µM (active)

N#Cc1ccccc1C(C#N)c1c(Cl)cnn(Cc2cccc3ccccc23)c1=O (stereo not drawn)
IC50 [14]: 9.7 µM (active)
IC50 [15]: 0.782 µM (active)

O=c1c(Oc2ccc3cc[nH]c3c2)c(Cl)cnn1Cc1cccc2ccccc12
IC50 [14]: 18.6 µM (inactive)
IC50 [15]: 1.01 µM (active)

COc1cc2cc(NC(C)=O)cc(NCCCO)c2cc1OC
IC50 [5]: 16.9 µM (active)
IC50 [6]: 29.3 µM (active)
IC50 [7]: 56 µM (active)
IC50 (Caspase-3): 37.7 µM (active)
